Laboratory results from ChEMBL document CHEMBL5576103, “Targeting prolidase. A survey of the literature data to depict a structure-activity relationship frame and to address future studies for drug development” (Bioorg Med Chem, 2024).
Blank lines part the entries; values can stand above or below the compound they belong to.

Tests used:
[1] = molecular target: T1, Xaa-Pro dipeptidase (Homo sapiens, UniProt P12955); assay: Competitive inhibition of prolidase (unknown origin) in erythrocytes assessed as inhibition constant
T1 sequence (P12955 whole entry): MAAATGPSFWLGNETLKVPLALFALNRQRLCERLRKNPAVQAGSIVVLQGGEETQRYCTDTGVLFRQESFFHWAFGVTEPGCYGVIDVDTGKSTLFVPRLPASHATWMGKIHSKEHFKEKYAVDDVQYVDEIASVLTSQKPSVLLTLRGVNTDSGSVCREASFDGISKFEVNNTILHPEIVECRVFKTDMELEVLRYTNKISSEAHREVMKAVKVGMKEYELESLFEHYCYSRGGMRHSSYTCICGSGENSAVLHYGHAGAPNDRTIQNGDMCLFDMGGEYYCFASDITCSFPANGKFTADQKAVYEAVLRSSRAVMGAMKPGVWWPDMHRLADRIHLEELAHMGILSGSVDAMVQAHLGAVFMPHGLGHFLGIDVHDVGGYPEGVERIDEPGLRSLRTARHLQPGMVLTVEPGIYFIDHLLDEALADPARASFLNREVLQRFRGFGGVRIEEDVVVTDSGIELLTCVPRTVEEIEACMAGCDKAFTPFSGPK

[2] = molecular target: T1, Xaa-Pro dipeptidase; assay: Inhibition of prolidase (unknown origin)
[3] = system: MCF7; assay: Cytotoxicity against human MCF7 cells assessed as reduction in cell viability measured for 72 hrs by MTT assay; settings: MCF7, 72 h
[4] = system: MDA-MB-231; assay: Cytotoxicity against human MDA-MB-231 cells assessed as reduction in cell viability measured for 72 hrs by MTT assay; settings: MDA-MB-231, 72 h
[5] = system: SK-MEL-5; assay: cells; settings: Homo sapiens, SK-MEL-5, 48 h
Description: Growth inhibition of human SK-MEL-5 cells after 48 hrs by sulforhodamine B assay

Ki [1]: 9.73 µM
Compound: NC(=O)Nc1ccc(O)cc1

IC50 [2]: 10 µM
Compound: COc1cccc2c1C(=O)c1c(O)c3c(c(O)c1C2=O)C[C@@](O)(C(=O)CO)C[C@@H]3O[C@H]1C[C@H](N)[C@H](O)[C@H](C)O1 [DOXORUBICIN]

Compound: O=NN(CCCl)C(=O)N1CCC[C@H]1C(=O)O
IC50 [3]: 102 µM
IC50 [4]: 88 µM

Compound: N[C@@H](Cc1ccc(N(CCCl)CCCl)cc1)C(=O)O
GI50 [5]: 74.8 µM

IC50 [2]: 0.3 µM
Compound: COc1cccc2c1C(=O)c1c(O)c3c(c(O)c1C2=O)C[C@@](O)(C(C)=O)C[C@@H]3O[C@H]1C[C@H](N)[C@H](O)[C@H](C)O1 [DAUNORUBICIN]
